Values of other authors as cited in patent publication US11730747B2, “Drink product and use thereof” (HYGIA PHARMACEUTICALS, LLC, priority 2013, dated 2023).

What was measured:
[1] = tested on: JB6 cells; conditions: IP6 0.5-2 mM, three-dimensional growth in soft agar
[2] = tested on: large intestinal cancer; conditions: rats; treatment begun 5 months after carcinogenic induction with azoxymethane
[3] = tested on: PC-3; conditions: PC-3 cells
[4] = tested on: human colon cancer cell lines
[5] = tested on: pulmonary adenomas; conditions: diet containing 3% myo-inositol, fed beginning 1 week after exposure to benzo[a]pyrene
[6] = tested on: PI3K; conditions: lung adenocarcinoma cell line
[7] = tested on: bronchial dysplasia; conditions: smokers

Question: Which “inhibition of EGF or TPA-induced cell transformation” value [1] does the source give for `O=P(O)(O)O[C@H]1[C@H](OP(=O)(O)O)[C@@H](OP(=O)(O)O)[C@H](OP(=O)(O)O)[C@@H](OP(=O)(O)O)[C@H]1OP(=O)(O)O` [IP6, inositol-1,2,3,4,5,6-hexakisphosphate] here?
Answer: dose-dependent inhibition

Question: What about the large intestinal cancers [2] of the same compound?
Answer: significantly (p=0.02) reducing

Question: What about the “levels of integrin linked kinase 1 (ILK1) and cyclin D1” value [3] of the same compound?
Answer: strong decrease

Question: And the “levels of phosphorylated AKT and GSK3α/β” value [3]?
Answer: reduced levels

Question: And the “phosphorylation levels of the p85 subunit of PI3K at Tyr458 and phosphoinositide-dependent kinase-1 at Ser241” value [3]?
Answer: reduced phosphorylation levels

Question: What about the “growth of human colon cancer cell lines in vitro” value [4] of the same compound?
Answer: inhibits growth

Question: Which “reduction of the number of pulmonary adenomas” value [5] does the source give for `O[C@H]1[C@H](O)[C@@H](O)[C@H](O)[C@@H](O)[C@H]1O` [myoinositol] here?
Answer: 40%

Question: And the PI3K activity [6]?
Answer: dose-dependent decreases

Question: What about the EC50 ([6]; read-out: median effective concentration (ECs) for PI3K inhibition) of the same compound?
Answer: 73 nM

Question: What about the “reduction in the systolic and diastolic blood pressures (average)” value ([7]; 18 grams per day for 3 months) of the same compound?
Answer: 10 mm Hg

Question: And the “rate of regression of preexisting dysplastic lesions” value ([7]; 18 grams per day for 3 months, versus 48%, P=0.014)?
Answer: 91%

Question: And the maximum tolerated dose ([7]; oral administration, dose escalation study for one month)?
Answer: 18 grams per day

Question: What about the side effects ([7]; oral myo-inositol) of the same compound?
Answer: mild and mainly gastrointestinal in nature
